Measured values from patent US6576263B2, “Delivery systems using preformed biodegradable polymer compositions and methods” (3M Innovative Properties Company, priority 2000, dated 2003).

Assays:
Assay type in all cases: physicochemical
[1] = Release of 5FU from albumin plugs containing alginic acid with added calcium; conditions: over a 5-hr period; alginate/Ca/5FU in albumin plug, PBS pH 7.4
Description: (§1) One ml of 1.04 mg/ml 5-fluorouracil was mixed with 30 mg of alginic acid. The pH of the mixture was brought to 6.8, and 150 μl of a saturated calcium chloride/water solution was added to gel the alginate. The gel was divided into 3 approximately equal volumes and then placed into a vacuum desiccator with DRIERITE to dry for 24 hr. The resulting alginate/Ca/5FU films were ground up and mixed into the 30% albumin solution (see Example 2) just prior to being placed into the 5-ml forms and crosslinked with an equivalent volume of PEG-(SS)2 crosslinker (136 mg/ml). Each plug was placed into a separate vial, and five mls of phosphate buffered saline (PBS), at pH 7.4, was added at sample time 0 (t0). The vials were maintained at room temperature and were shaken continuously. At each sample time, the entire content of the vial was removed and replaced with 5 ml of fresh PBS. Samples were taken at 1 hr, 2 hr, 3 hr, 4 hr, 5 hr, and 24 hr.
The 5FU was analyzed as described in Example 1.

[2] = Release of 5FU from albumin plugs containing alginic acid without added calcium; conditions: over a 5-hr period; alginate/5FU without calcium in albumin plug, PBS pH 7.4
Description: as §1, with “One milliliter” for “One ml”, “and” for “and 150 μl of a saturated calcium chloride/water solution was added to gel the alginate. The gel was divided into 3 approximately equal volumes and”, “resulting alginate/5FU film was” for “resulting alginate/Ca/5FU films were”, “the 5 ml syringe” for “the 5-ml”, “and 5 ml” for “and five mls”
The 5FU was analyzed as in Example 1.

[3] = Release of 5FU from preformed, dried albumin/PEG-(SS)2 plugs reconstituted with 5FU solution; conditions: rehydrated albumin/PEG-(SS)2 plug, PBS pH 7.4, room temperature
Description: Two polymer plugs were preformed in a modified 5-milliliter (ml) poly syringe, wherein the syringe barrel was cut to form an open cylindrical receptacle, and then by mixing 0.5 ml of 29% albumin solution (obtained from American Biological Technology, Seguin, Tex. or by diafiltration (Procedure B) as described above) and 0.5 ml of 136 mg/ml PEG-(SS)2 crosslinker. After crosslinking was complete (15 minutes) the plugs were removed from the syringe and pushed out. The polymer plugs were dried under vacuum for 24 hours (hr). The plugs were reconstituted with […] of a 5FU solution (1.04 mg/ml from Sigma Chemical Co, St. Louis, Mo.) so that each plug contained a total of 187.6 micrograms (μg), or 165.5 μg of 5FU. Each plug was placed into a separate vial, and five ml of phosphate buffered saline (PBS), at pH 7.4, were added at sample time 0 (t0). The vials were maintained at room temperature and were shaken continuously. At each sample time, the entire content of the vial was removed and replaced with 5 ml of fresh PBS. Samples were taken at 0.25 hr, 0.5 hr, 1 hr, 2 hr, 3 hr, 4 hr, 5 hr, 6 hr, and 24 hr. Ana of 5FU was analyzed by high-pressure liquid chromatography, following the method of Bernatchez et al., Int. J. Pharm., 106, 161-166 (1994).

[4] = Release of 5-fluorouracil from plug made with 5FU mixed with the crosslinker and albumin; conditions: over an 8-hr period; 5FU added with crosslinker, PBS pH 7.4, room temperature
Description: 136 mg of PEG-(SS)2 crosslinker was dissolved in 1 ml of a 1.04 mg/ml 5-Fluorouracil solution. This solution was then mixed into 1 ml of 30% albumin solution (see Example 2) already in a 5-ml form. The resulting hydrogel plug was removed from the form after 15 minutes and cut into three equal sized pieces (approximately 0.5 cm in thickness). Each piece was then placed into a vial and 4 ml of a PBS buffer (pH 7.4) added at sample time 0 (t0). The vials were maintained at room temperature and were shaken continuously. At each sample time, the entire content of the vial was removed and replaced with 4 ml of fresh PBS. Samples were taken at 1 hr, 2 hr, 4 hr, and 8 hr.

[5] = Release of cefazolin from albumin plugs made with 4-arm PEG crosslinker; conditions: albumin/4-arm PEG plug, PBS pH 7.4, room temperature
Description: Two polymer plugs were preformed from 0.5 ml of 30% albumin solution (Procedure B) and 0.5 ml of 110 mg/ml 4-arm-N-hydroxysuccinimidyl ester of poly(ethylene glycol)-succinate crosslinker (Shearwater Polymers, Inc., Huntsville, Ala.). Approximately 10 mg of sodium cefazolin (Sigma Chemical. Co., St. Louis, Mo.) was dissolved in the albumin before the crosslinker was added to form the cylindrical plugs. Each formed plug was placed into a separate vial, and 8 mls of phosphate buffered saline (PBS) at pH 7.4 was added at sample time (t0). The vials were maintained at room temperature and were shaken continuously. At each sample time, the entire content of the vial was removed and replaced with eight ml of fresh PBS. Samples were taken at 0.25, 0.5, 1, 2, 3, 4, 5, and 24 hours and approximately every 24 hours thereafter up to 144 hours.
Cefazolin was analyzed by high-pressure liquid chromatography, following the method of Liang et al, J. Chromatog. B., 656, 45-465 (1994). The column was a Waters C-18 (3.9×300 mm) column sold under the tradename MICROBONDAPAK and the column temperature was maintained at 25° C. The mobile phase consisted of 0.02M sodium phosphate buffer (pH=5.0 and methanol (77:23). The wavelength used for detection was 270 nm and the column flow rate was 1.0 ml/min.

5FU released [1] | 5FU released [2] | time period over which 5FU was released [3] | 5-fluorouracil released [4] | total cefazolin released ([5]; over 144 hours) | cefazolin released ([5]; over the first 5-hour time period) | Compound
about 60% | about 40% | 5 h | about 55% | – | – | O=c1[nH]cc(F)c(=O)[nH]1 [Example 5FU, 5-fluorouracil]
– | – | – | – | 95.6% | approximately 67% | Cc1nnc(SCC2=C(C(=O)O)N3C(=O)[C@@H](NC(=O)Cn4cnnn4)[C@H]3SC2)s1 [cefazolin]
